Twelve molecules from ChEMBL document CHEMBL1201862, “PubChem BioAssay data set” (2004) can be followed below.

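In this assay, cells in 96-well plates receive the compound at five concentrations for 48 hours. Endpoints are linearly interpolated between the surrounding concentrations. GI50 = concentration required for 50% inhibition of growth.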 Active and inactive are the calls of the source. Cut-off read from the data, not from the text of the source: active = GI50 up to about 1.1 µM and inactive = higher.

Test in all cases: inhibition of tumour cell growth, NCI panel, 48 h
Assay [1] concerns 786-0.
Assay [2] deals with DU-145.
Assay [3] has as its system HCC 2998.
The test system of assay [4] is HT-29.
The subject of assay [5] is Hs-578T.
In assay [6] the test system is MDA-MB-231.
Assay [7] deals with MDA-MB-435.
For assay [8], the system named is MOLT-4.
Assay [9] has as its system PC-3.
Assay [10] concerns RPMI-8226.
Assay [11] deals with RXF 393.
Assay [12] relates to SF-295.
Assay [13] has as its system SK-MEL-28.
Assay [14] deals with SNB-19.
For assay [15], the system named is SNB-75.
Assay [16] relates to U-251.
Assay [17] relates to NCI-H460.
The subject of assay [18] is K562.
For assay [19], the system named is LOX IMVI.
Assay [20] concerns SR.

For `C#CCNC(CSSCC(N)C(=O)O)C(=O)O` (stereo not given), the GI50 in assay [1], in assay [2], in [3], in assay [4], in [5] and in assay [6] was > 100 µM (inactive) each time. Besides, the GI50 in assay [7], in assay [8], in assay [9], in assay [10], in assay [11] and in [12] was > 100 µM (inactive) throughout. Also, the GI50 in [13], in assay [14], in assay [15] and in assay [16] was > 100 µM (inactive) throughout.
For the molecule `Cc1cc(C)c2cc(N)c(Cl)nc2n1`, the GI50 in assay [1] was > 100 µM (inactive); in assay [2] it was > 100 µM (inactive); in assay [4], 63.5 µM (inactive); in assay [5], > 100 µM (inactive); in assay [6], > 100 µM (inactive); in [7] it was > 100 µM (inactive). The GI50 in [17] was 96.4 µM (inactive); in assay [9], > 100 µM (inactive); in [10], > 100 µM (inactive); in assay [11], > 100 µM (inactive); in assay [12], > 100 µM (inactive); in [14] it was > 100 µM (inactive). Besides, the GI50 was > 100 µM (inactive) in assay [15] and 99.5 µM (inactive) in [16].
In the case of `CCCCn1cnc2c(c(CC#N)nn2-c2ccccc2)c1=N`, the GI50 was 57.1 µM (inactive) in [1]; 76 µM (inactive) in [2]; 37.1 µM (inactive) in [3]; 33.4 µM (inactive) in [4]; 39.9 µM (inactive) in assay [5]; 34 µM (inactive) in [18]. In addition, the GI50 in [19] is 39.3 µM (inactive); in assay [6] it was 43.1 µM (inactive); in [7], 32.3 µM (inactive); in assay [8] it was 33.1 µM (inactive); in assay [17] it was 39.9 µM (inactive); in assay [9], 36.8 µM (inactive). Also, the GI50 in assay [10] was 27.4 µM (inactive); in assay [11], 70.1 µM (inactive); in assay [12], 30.4 µM (inactive); in assay [13], 44.1 µM (inactive); in [14], > 100 µM (inactive); in assay [15] it was 45.6 µM (inactive). Also, in assay [16], the GI50 was 37.9 µM (inactive).
Consider `CSC1=N/C(=C\c2ccc(C)cc2)C(=O)N1CN1CCOCC1`, for which the GI50 in [1] is 44.7 µM (inactive); in assay [2], 76 µM (inactive); in [5], 84.9 µM (inactive); in [18] it was 34.3 µM (inactive); in assay [19] it was 39.9 µM (inactive); in assay [6], > 100 µM (inactive). Also, the GI50 is 99.8 µM (inactive) in assay [7]; 28.9 µM (inactive) in assay [8]; 58.9 µM (inactive) in assay [9]; 23.7 µM (inactive) in assay [10]; > 100 µM (inactive) in assay [12]; > 10 µM (inactive) in assay [13]. In addition, the GI50 in assay [14] is 37.5 µM (inactive); in assay [15] it was 46.3 µM (inactive); in assay [20], 69.3 µM (inactive); in assay [16], 40.8 µM (inactive).
Turning to `O[C@@H]1C[C@H]2N3CC[C@@]2(c2cc4c(cc2C3)OCO4)[C@H]2O[C@@H]12`, the GI50 in assay [1], in assay [2], in assay [3], in [4], in assay [5] and in [18] was > 100 µM (inactive) in each case. Also, the GI50 in assay [19], in [6], in assay [7], in assay [8], in [17] and in assay [9] was > 100 µM (inactive) in each case. For the same molecule, the GI50 in assay [10], in assay [11], in assay [12], in assay [13], in assay [14] and in [15] was > 100 µM (inactive) in each case. In addition, the GI50 in [16] was > 100 µM (inactive).
As to `Cc1cn2c(/C=N/NC(=N)N)c(-c3ccc([N+](=O)[O-])cc3)nc2s1`, the GI50 is 0.256 µM (active) in assay [1]; 2.49 µM (inactive) in assay [2]; 1.32 µM (inactive) in assay [4]; 0.935 µM (active) in assay [5]; 0.352 µM (active) in assay [19]; 0.385 µM (active) in assay [6]. In addition, the GI50 is 1.57 µM (inactive) in [7]; 1.76 µM (inactive) in assay [17]; 1.4 µM (inactive) in assay [9]; 1.42 µM (inactive) in assay [10]; 0.914 µM (active) in [11]; 1.46 µM (inactive) in [12]. Moreover, the GI50 in assay [13] is 1.57 µM (inactive); in assay [14], 0.357 µM (active); in [15], 0.509 µM (active); in assay [16], 0.995 µM (active).
Turning to `Cn1c(=S)[nH]c2sc3c(c2c1=O)CCSC3`, the GI50 in assay [1] is 76.6 µM (inactive); in assay [2] it was 24.3 µM (inactive); in [3], 21.8 µM (inactive); in assay [4], 29.9 µM (inactive); in [5], > 100 µM (inactive); in assay [18] it was 42.9 µM (inactive). Besides, the GI50 was 36.6 µM (inactive) in assay [19]; > 100 µM (inactive) in assay [6]; 49.1 µM (inactive) in assay [7]; 33.8 µM (inactive) in assay [8]; 35.8 µM (inactive) in assay [17]; 44.2 µM (inactive) in assay [9]. In addition, the GI50 in assay [10] is 32.4 µM (inactive); in assay [11], 3.05 µM (inactive); in assay [12], 29.9 µM (inactive); in assay [14], 47.4 µM (inactive); in [15], > 100 µM (inactive); in [16], 40.5 µM (inactive).
As to `CCOC(=O)NC(NCC(O)c1ccccc1)(C(F)(F)F)C(F)(F)F` (stereo not given), the GI50 in assay [2], in assay [3], in assay [4], in assay [5], in assay [18] and in assay [19] was > 100 µM (inactive) in each case. For the same molecule, the GI50 in assay [6] was > 100 µM (inactive); in assay [7], > 100 µM (inactive); in assay [8], > 100 µM (inactive); in assay [17], > 100 µM (inactive); in assay [10], > 100 µM (inactive); in [11], 43.4 µM (inactive). Besides, the GI50 in [13], in assay [14], in assay [15], in assay [20] and in assay [16] was > 100 µM (inactive) each time.
Regarding `c1ccc(N2N=C3N(c4ccccc4)C2N3c2ccccc2)cc1`, the GI50 is 56.5 µM (inactive) in [2]; 27.6 µM (inactive) in [3]; 29.4 µM (inactive) in [4]; 57.7 µM (inactive) in assay [5]; 14.7 µM (inactive) in assay [18]; 21.1 µM (inactive) in assay [19]. The GI50 in [6] was 57.3 µM (inactive); in [7] it was 17.6 µM (inactive); in [8], 16.5 µM (inactive); in assay [17], 31.1 µM (inactive); in assay [9] it was 44.5 µM (inactive); in [10], 15.7 µM (inactive). Further, the GI50 in assay [11] is 45.3 µM (inactive); in [12], 36.1 µM (inactive); in [13], 19.1 µM (inactive); in assay [14], 87.1 µM (inactive); in assay [15] it was 17.8 µM (inactive); in assay [16], 46.8 µM (inactive).
For the molecule `NS(=O)(=O)c1nnc(NC(=O)N(c2ccccc2)c2ccccc2)s1`, the GI50 in assay [1] was 23 µM (inactive); in assay [2], 14.2 µM (inactive); in [4] it was 27.6 µM (inactive); in assay [5], 25 µM (inactive); in assay [18], 33.5 µM (inactive); in [19] it was 15.9 µM (inactive). For the same molecule, the GI50 in assay [6] was 70.1 µM (inactive); in assay [7] it was 23.4 µM (inactive); in assay [8], 21.1 µM (inactive); in [9], 33 µM (inactive); in assay [10], 17 µM (inactive); in assay [11] it was 18.4 µM (inactive). Also, the GI50 is 34 µM (inactive) in [12]; 39 µM (inactive) in assay [13]; 24.4 µM (inactive) in assay [14]; 18.5 µM (inactive) in assay [15]; 43.7 µM (inactive) in [16].
For `Cc1cc2oc(=N)c(C#N)c(C)c2cc1C`, the GI50 in [1] was 96.4 µM (inactive); in [2] it was 84.7 µM (inactive); in assay [3], 52.5 µM (inactive); in [4], 63 µM (inactive); in assay [5], 26.3 µM (inactive); in [18], 24.5 µM (inactive). The GI50 in assay [19] is 90.2 µM (inactive); in [6], > 100 µM (inactive); in assay [7] it was 51.5 µM (inactive); in [8] it was 2.5 µM (inactive); in assay [17], 46.7 µM (inactive); in assay [9], 36.9 µM (inactive). Also, the GI50 in [10] was 42.7 µM (inactive); in assay [11], 24.3 µM (inactive); in assay [12] it was 44.6 µM (inactive); in assay [13], > 100 µM (inactive); in [14] it was 83.2 µM (inactive); in assay [15], 19.1 µM (inactive). Moreover, the GI50 in assay [16] was 65.6 µM (inactive).
Regarding `CC(C)(C)[Si](C)(C)OCCCCC1CC2(S(=O)(=O)C3=CC=C=C=C3)ON1CC2S(=O)(=O)c1ccccc1` (stereo not given), the GI50 in assay [1], in assay [2], in [3], in assay [4], in assay [5] and in assay [18] was > 100 µM (inactive) in each case. Also, the GI50 in assay [6], in assay [7], in assay [8], in assay [17], in assay [10] and in [11] was > 100 µM (inactive) each time. The GI50 in assay [13], in assay [14], in [15] and in assay [16] was > 100 µM (inactive) in each case.
